According to patent US11932606B2, “Anti-cancer/anti-fibrosis compounds” (THE REGENTS OF THE UNIVERSITY OF CALIFORNIA, priority 2017, dated 2024):

Tests used:
CSNK2A1 (CK2 alpha 1) = CSNK2A1 (CK2 alpha 1) (Homo sapiens (Human), UniProt P68400); experiment: CK2 alpha 1 enzymatic activity inhibition (Z'-LYTE); assay type: biochemical; conditions: read-out: CK2a IC50
Protocol: CK2 Alpha 1 Enzymatic Activity Inhibition: Determination of IC50 Values for Selected Compounds
The half maximal inhibitory concentration (IC50) with respect to CK2 alpha 1 inhibition was determined for the compounds of the invention by using Z′-LYTE™ from ThermoFisher Scientific's SelectScreen™ Biochemical Kinase Profiling Service (Waltham, MA). Compounds were screened in 1% DMSO (final) in the well. For 10 point titrations, 3-fold serial dilutions were conducted from the starting concentration. The 2×CSNK2A1 (CK2 alpha 1)/Ser/Thr 11 mixture is prepared in 50 mM HEPES pH 7.5, 0.01% BRIJ-35, 10 mM MgCl2, 1 mM EGTA. The black 384-well plate (Corning Cat. #4514) were used for the assay. 100 nL of 100× test compound in 100% DMSO, 2.4 uL of kinase buffer (50 mM HEPES pH 7.5, 0.01% BRIJ-35, 10 mM MgCl2, 1 mM EGTA), 5 uL of 2×CSNK2A1 (CK2 alpha 1)/Ser/Thr 11 mixture, and 2.5 uL of 4×ATP solution were mixed and agitated for 30 seconds. Then the Kinase Reaction was incubated at room temperature for 60 minutes. The final 10 uL Kinase Reaction consisted of 0.68-25.7 ng CSNK2A1 (CK2 alpha 1) and 2 μM Ser/Thr 11 in 50 mM HEPES pH 7.5, 0.01% BRIJ-35, 10 mM MgCl2, 1 mM EGTA. After the 1 hour Kinase Reaction incubation, 5 uL of a 1:16 dilution of Development Reagent B is added. After 30 second of plate shake, the reaction plate was incubated for another 60 min at room temperature. Then the plate was read on a fluorescence plate reader (CLARIOstar, BMG Labtech, Germany) and data was analyzed using XLfit from IDBS. The dose response curve was curve fit to model number 205 (sigmoidal dose-response model).

CDK8/cyclinC = CDK8/cyclinC (Homo sapiens (Human), UniProt P49336); experiment: CDK8 LanthaScreen Eu kinase binding assay; conditions: read-out: IC50 against CDK8
Protocol: CDK8 Enzymatic Activity Inhibition: Determination of IC50 Values for Selected Compounds
The half maximal inhibitory concentration (IC50) with respect to CDK8 inhibition was determined for the compounds of the invention by using LanthaScreen™ Eu kinase binding assay from ThermoFisher Scientific's SelectScreen™ Biochemical Kinase Profiling Service (Waltham, MA). Compounds were screened in 1% DMSO (final) in the well. For 10 point titrations, 3-fold serial dilutions were conducted from the starting concentration.
The 2×CDK8/cyclinC/Eu-anti-His mixture is prepared in kinase buffer A (50 mM HEPES pH 7.5, 0.01% BRIJ-35, 10 mM MgCl2, 1 mM EGTA). The Bar-coded, low volume, white 384-well plate (Greiner Cat. #784207) were used for the assay. 160 nL of 100× test compound in 100% DMSO, 3.84 uL of kinase buffer A, 8 uL of 2×CDK8/cyclinC/Eu-anti-His mixture, and 4 uL of 4× tracer 236 were mixed and shaked for 30 seconds. Then the Kinase Reaction was incubated at room temperature for 60 minutes. After the 1 hour Kinase Reaction incubation, the plate was read on a fluorescence plate reader (Infinite F500, Tecan Systems Inc, USA), and data was analyzed using XLfit from IDBS. The dose response curve was curve fit to model number 205 (sigmoidal dose-response model).

A204 = experiment: Cell viability assay (CellTiter-Glo, day 7); assay type: cell-based; conditions: Homo sapiens, 168 h; A204, day 7
Protocol: (§1) CLL-119, Hela, HCT116, MCF7, Colo205, SW620, H2052, MSTO-211H, U-251, Colo 357, OE33, Huh-7, A549, BT474, A204 and H290 cells were acquired from UCSF Cell and Genome Engineering Core. A549-Brm3 and H2030-Brm3 were from UCSF thoracic oncology lab. All cells were plated (96-well) in triplicate at 500 cells per well for testing (n=3) with compound. Medium was changed once on day 3. On day 7, the CellTiter-Glo Luminescent Cell Viability Assay (Promega) was performed to measure the response. For cell viability assay, two independent experiments have been done.

A549-BRM3 = experiment: Cell viability assay (CellTiter-Glo, day 7); assay type: cell-based; conditions: 168 h; A549-BRM3, day 7
Protocol: as §1

A549 = experiment: Cell viability assay (CellTiter-Glo, day 7); assay type: cell-based; conditions: Homo sapiens, 168 h; A549, day 7
Protocol: as §1

BT474 = experiment: Cell viability assay (CellTiter-Glo, day 7); assay type: cell-based; conditions: Homo sapiens, BT-474, 168 h; BT474, day 7
Protocol: as §1

CLL-119 = experiment: Cell viability assay (CellTiter-Glo, day 7); assay type: cell-based; conditions: 168 h; CLL-119, day 7
Protocol: as §1

Colo205 = experiment: Cell viability assay (CellTiter-Glo, day 7); assay type: cell-based; conditions: Homo sapiens, COLO 205, 168 h; Colo205, day 7
Protocol: as §1

Colo357 = experiment: Cell viability assay (CellTiter-Glo, day 7); assay type: cell-based; conditions: Homo sapiens, 168 h; Colo357, day 7
Protocol: as §1

H2030-BRM3 = experiment: Cell viability assay (CellTiter-Glo, day 7); assay type: cell-based; conditions: 168 h; H2030-BRM3, day 7
Protocol: as §1

H2052 = experiment: Cell viability assay (CellTiter-Glo, day 7); assay type: cell-based; conditions: Homo sapiens, NCI-H2052, 168 h; H2052, day 7
Protocol: as §1

H290 = experiment: Cell viability assay (CellTiter-Glo, day 7); assay type: cell-based; conditions: NCI-H290, 168 h; H290, day 7
Protocol: as §1

HCT116 = experiment: Cell viability assay (CellTiter-Glo, day 7); assay type: cell-based; conditions: Homo sapiens, HCT-116, 168 h; HCT116, day 7
Protocol: as §1

Hela = experiment: Cell viability assay (CellTiter-Glo, day 7); assay type: cell-based; conditions: Homo sapiens, 168 h
Protocol: as §1

Huh-7 = experiment: Cell viability assay (CellTiter-Glo, day 7); assay type: cell-based; conditions: Homo sapiens, 168 h; Huh-7, day 7
Protocol: as §1

MCF7 = experiment: Cell viability assay (CellTiter-Glo, day 7); assay type: cell-based; conditions: Homo sapiens, 168 h; MCF7, day 7
Protocol: as §1

MSTO-211H = experiment: Cell viability assay (CellTiter-Glo, day 7); assay type: cell-based; conditions: Homo sapiens, 168 h
Protocol: as §1

OE33 = experiment: Cell viability assay (CellTiter-Glo, day 7); assay type: cell-based; conditions: Homo sapiens, 168 h; OE33, day 7
Protocol: as §1

SW620 = experiment: Cell viability assay (CellTiter-Glo, day 7); assay type: cell-based; conditions: Homo sapiens, SW-620, 168 h; SW620, day 7
Protocol: as §1

U-251 = experiment: Cell viability assay (CellTiter-Glo, day 7); assay type: cell-based; conditions: Homo sapiens, 168 h; U-251, day 7
Protocol: as §1

Chain of CDK8/cyclinC (P49336 whole entry): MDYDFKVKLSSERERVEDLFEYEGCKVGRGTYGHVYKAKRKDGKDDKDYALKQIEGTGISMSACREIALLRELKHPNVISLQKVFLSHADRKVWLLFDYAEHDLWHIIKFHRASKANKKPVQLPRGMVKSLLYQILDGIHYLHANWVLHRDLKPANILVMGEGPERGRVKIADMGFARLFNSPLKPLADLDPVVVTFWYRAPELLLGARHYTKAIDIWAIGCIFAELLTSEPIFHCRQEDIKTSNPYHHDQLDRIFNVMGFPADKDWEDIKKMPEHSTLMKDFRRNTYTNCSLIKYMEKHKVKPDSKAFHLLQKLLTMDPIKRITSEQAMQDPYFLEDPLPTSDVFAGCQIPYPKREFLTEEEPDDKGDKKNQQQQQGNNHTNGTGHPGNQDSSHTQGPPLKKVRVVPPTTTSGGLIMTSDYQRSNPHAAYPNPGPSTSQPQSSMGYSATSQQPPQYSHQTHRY
Chain of CDK8/cyclinC (P24863 whole entry partner): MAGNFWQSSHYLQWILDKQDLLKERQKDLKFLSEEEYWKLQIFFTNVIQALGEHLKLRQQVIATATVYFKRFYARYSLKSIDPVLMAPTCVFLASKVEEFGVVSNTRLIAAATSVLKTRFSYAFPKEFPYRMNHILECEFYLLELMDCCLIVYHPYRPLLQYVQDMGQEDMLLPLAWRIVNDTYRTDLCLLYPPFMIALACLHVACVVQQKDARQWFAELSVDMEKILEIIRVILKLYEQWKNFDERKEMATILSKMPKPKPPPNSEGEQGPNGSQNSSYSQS
Chain of CSNK2A1 (CK2 alpha 1) (P68400 whole entry): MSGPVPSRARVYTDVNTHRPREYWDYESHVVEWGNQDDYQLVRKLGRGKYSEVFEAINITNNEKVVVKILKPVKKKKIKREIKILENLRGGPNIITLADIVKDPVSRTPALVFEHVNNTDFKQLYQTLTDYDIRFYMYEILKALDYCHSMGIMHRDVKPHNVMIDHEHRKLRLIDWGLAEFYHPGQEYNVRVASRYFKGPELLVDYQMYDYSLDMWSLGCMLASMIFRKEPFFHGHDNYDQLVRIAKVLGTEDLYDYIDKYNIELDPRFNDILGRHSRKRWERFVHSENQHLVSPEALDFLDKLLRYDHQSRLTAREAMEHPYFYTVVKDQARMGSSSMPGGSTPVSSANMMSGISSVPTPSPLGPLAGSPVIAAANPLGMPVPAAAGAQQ

IC50 (CSNK2A1 (CK2 alpha 1)): < 300 nM
IC50 (CDK8/cyclinC): < 300 nM
IC50 (A549-BRM3): 1000 to 10000 nM
IC50 (A549): 1000 to 10000 nM
IC50 (BT474): 1000 to 10000 nM
IC50 (Colo205): < 1000 nM
IC50 (Colo357): 1000 to 10000 nM
IC50 (H2030-BRM3): < 1000 nM
IC50 (H2052): 1000 to 10000 nM
IC50 (H290): 1000 to 10000 nM
IC50 (HCT116): 1000 to 10000 nM
IC50 (Hela): 1000 to 10000 nM
IC50 (Huh-7): < 1000 nM
IC50 (MCF7): 1000 to 10000 nM
IC50 (SW620): 1000 to 10000 nM
IC50 (U-251): 1000 to 10000 nM
Structure (SMILES): Nc1nccc2c(Br)cc3cc(C(=O)[O-])ccc3c12.[Na+] [Compound 29, Sodium 1-amino-5-bromobenzo[h]isoquinoline-8-carboxylate]
IC50 (A204): 1000 to 10000 nM
IC50 (CLL-119): < 1000 nM
IC50 (MSTO-211H): 1000 to 10000 nM
IC50 (OE33): < 1000 nM
